For series [1] the following is noted: cited from earlier work.
The conditions of series [2]: cited from earlier work. This is another data set of the same source.
For series [3] the following is noted: cited from earlier work. This is another data set of the same source.
Series [4] concerns infectious inflammatory diseases. To be noted: prior-art drugs; cited from earlier work.
For series [5] the following is noted: rabbit, in vivo, po, 5 mg/kg, cited from earlier work; for total quantity removed, of the total quantity administered: 2880 min.
For series [6], the system named is pathogenic microorganisms. To be noted: cited from earlier work.
For series [7] the following is noted: cited from earlier work. The source holds these as a separate data set.
The conditions of series [8]: prior-art drugs; cited from earlier work.
Series [9] in a line: in vivo. As to conditions: rabbit, urine, 50 mg/kg.
A further series deals with white mice. To be noted: cited from earlier work.
In series [10] the test system is Staphylococcus aureus haemolyticus. Nature of the series: bacteriostatic concentration. It counts as cell-based.
In the next series the test system is Bac. mycoides. Nature of the series: microbe, parasite or virus in culture. As to conditions: Bacillus mycoides, read-out: bacteriostatic concentration. It counts as cell-based.
For the next series, the system named is Bac. coil. Description: bacteriostatic concentration. It counts as cell-based.
For series [11] the following is noted: rabbit, in vivo, 50 mg/kg.
A short description of series [12]: in vivo. To be noted: rabbit, blood.

Where a name gives a salt, the structure may show the parent alone. Read-outs that look alike come from different tables or passages of the source.

The text below walks through data of US4500516A, “Antibacterial pharmaceutical composition” (priority 1982, dated 1985).

As to `O=C1CN(N=CC=Cc2ccc([N+](=O)[O-])o2)C(=O)N1` [Furagin, N-[β-(5'-nitrofuryl-2')-acrylidene]-1-aminohydantoin], the solubility in water entry in [1] is listed as “very poorly soluble in water”. Further, the pK in [2] is given as 6. Moreover, the intolerance entry in series [3] (in vivo) was “in quite a number of cases, said pharmaceutical composition is observed to meet with intolerance”. In addition, the spectrum of action entry in series [4] is “wider spectrum of therapeutic action than the aforesaid Nitrofurantoin and Furadantin”. Also, in series [5], the “total quantity removed, of the total quantity administered” value was 2.75±0.41% and the “concentrations in the urine, Furagin versus Solafur” value is recorded as “roughly equal”.

Turning to `O=C1CN(N=Cc2ccc([N+](=O)[O-])o2)C(=O)N1` [Nitrofurantoin, 1-(5'-nitrofurfurylideneamino)-hydantoin], the bacteriostatic concentration value entry in series [6] (in words) is on record as “comparatively high”. Also, the intolerance result in series [3] (medical practice) is “Sometimes this pharmaceutical composition is observed to meet with intolerance”. The “removal from the organism” value in series [7] (in vivo) is given as “quickly removed from the organism”. In addition, in series [7] (oral), the “absorption from the gastrointestinal tract” value is “quickly absorbable from the gastrointestinal tract”; the “drug concentration in the blood and in the urine” value is on record as “capable of reaching a level sufficient to produce a therapeutic effect”. Further, the toxicity result in [8] is listed as “noticeably toxic”. Further, the spectrum of action entry in series [4] is “relatively limited spectrum of action”. Also, in the series “in vivo [9]”, the Cmax worked out at 610 µg/mL and the Tmax is 1 h. For the same molecule, in the series on white mice (white mice, oral administration), the LD50 is recorded as 166.7 mg/kg.

For `O=C1CN(N=CC=Cc2ccc([N+](=O)[O-])o2)C(=O)N1` [Solafur, potassium salt of N-[β-(5'-nitrofuryl-2')-acrylidene]-1-aminohydantoin], the MIC (in series [10]; in the series on Bac. mycoides; in the series on Bac. coil) was 2.5 µg/mL throughout. Further, the “total excretion of Solafur with urine” value in series [11] is 3.43 ± 0.3 mg. In addition, the “synergistic action with antibiotics” value in [6] (a range of antibiotics, most pathogenic microorganisms) is “capability of producing synergistic action with a range of antibiotics upon most pathogenic microorganisms”. In [1], the solubility in water entry is “higher than that of the aforementioned Furagin”. Further, the “side effects on faster administration” value in series [3] (in vivo, iv) was “headache and nausea”. The intolerance result in series [3] (in vivo) is “in some cases this pharmaceutical composition is observed to meet with intolerance”. In addition, in [4], the spectrum of action result is “broader spectrum of action compared to Furagin”. The same molecule came in with a concentration at 0.25 h in “in vivo [12]” of 2.8 µg/mL. Further, the LD50 in the series on white mice (mouse, in vivo, po) was 390 mg/kg. Moreover, the “total quantity removed, of the total quantity administered” value in series [5] is recorded as 2.83±0.48%. Besides, the “concentrations in the urine, Furagin versus Solafur” value in series [5] was “roughly equal”.
